The results in this text go back to patent publication US7138411B2, “Substituted benzopyran derivatives for the treatment of inflammation” (G.D. Searle & Co., priority 1997, dated 2006).

Where a name gives a salt, the structure may show the parent alone.

With `COc1c(Cl)cc2c(c1Cl)OC(C(F)(F)F)C(C(=O)O)=C2` (centres unmarked) [Example 61, 6,8-Dichloro-7-methoxy-2-trifluoromethyl-2H-1-benzopyran-3-carboxylic acid], the melting point lay in the range of 195.6 to 199.1 °C.
On to `CC(C)(C)c1ccc2c(c1)OC(C(F)(F)C(F)(F)F)C(C(=O)O)=C2` (centres unmarked) [Example 111, 7-(1,1-Dimethylethyl)-2-(pentafluoroethyl)-2H-1-benzopyran-3-carboxylic acid], for which the melting point lay within 171 to 173.5 °C.
The result for `O=C(O)C1=Cc2cc(C(F)(F)F)ccc2NC1C(F)(F)F` (centres unmarked) [Example 163, 6-(Trifluoromethyl)-1,2-dihydro-2-(trifluoromethyl)-3-quinolinecarboxylic acid] reads 150 to 156 °C; that for `O=C(O)C1=Cc2cc(-c3ccc(Cl)cc3)ccc2OC1C(F)(F)F` (centres unmarked) [Example 137, 6-(4-Chlorophenyl)-2-(trifluoromethyl)-2H-1-benzopyran-3-carboxylic acid], 212 to 213 °C; that for `O=C(O)C1=Cc2cc(Cl)cc(C#CCCCCl)c2OC1C(F)(F)F` (centres unmarked) [Example 118, 6-Chloro-8-(5-chloro-1-pentynyl)-2-(trifluoromethyl)-2H-1-benzopyran-3-carboxylic acid], 154.4 to 156.4 °C.
Regarding `O=Cc1cc(Cl)cc2c1OC(C(F)(F)F)C(C(=O)O)=C2` (centres unmarked) [Example 76, 6-Chloro-8-Formyl-2-(trifluoromethyl)-2H-1-benzopyran-3-carboxylic acid], the melting point was 243.3 to 252.4 °C.
The molecule `O=C(O)C1=Cc2ccccc2SC1C(F)(F)F` (centres unmarked) [Example 151, 2-(Trifluoromethyl)-2H-1-benzothiopyran-3-carboxylic acid] gave a melting point of 187 to 190 °C.
As for `C[S+]([O-])c1ccc2c(c1)C=C(C(=O)O)C(C(F)(F)F)O2` (centres unmarked) [Example 86, 6-(Methylsulfinyl)-2-(trifluoromethyl)-2H-1-benzopyran-3-carboxylic acid], the melting point was in the range of 148.3 to 151 °C.
`O=C(O)C1=Cc2cc(Cl)cc(/C=N/O)c2OC1C(F)(F)F` (centres unmarked) [Example 108, 6-Chloro-8-[(hydroxyimino)methyl]-2-(trifluoromethyl)-2H-1-benzopyran-3-carboxylic acid] came in with a melting point of 246.9 to 247.9 °C.
Turning to `N#Cc1ccc2c(c1)C=C(C(=O)O)C(C(F)(F)F)N2` (centres unmarked) [Example 164, 6-Cyano-1,2-dihydro-2-(trifluoromethyl)-3-quinolinecarboxylic acid], the melting point fell in the range of 238 to 240 °C.
`O=C(O)C1=Cc2cc(Cl)ccc2N(Cc2ccc([N+](=O)[O-])cc2)C1C(F)(F)F` (centres unmarked) [Example 170, 6-Chloro-1,2-dihydro-1-[(4-nitrophenyl)methyl]-2-(trifluoromethyl)-3-quinolinecarboxylic acid] returned a melting point of 225 to 228 °C.
In turn, `O=C(O)C1=Cc2ccc(Cl)cc2OC1C(F)(F)F` (centres unmarked) [Example 72, 7-Chloro-2-trifluoromethyl-2H-1-benzopyran-3-carboxylic acid] showed a melting point of 175.2 to 177.6 °C.
With `Cc1cc(C)c2c(c1)C=C(C(=O)O)C(C(F)(F)F)S2` (centres unmarked) [Example 146, 6,8-Dimethyl-2-(trifluoromethyl)-2H-1-benzothiopyran-3-carboxylic acid], the melting point is 220 to 225 °C (dec.).
For `O=C(O)C1=Cc2cc(Cl)cc(I)c2OC1C(F)(F)F` (centres unmarked) [Example 73, 6-Chloro-8-iodo-2-(trifluoramethyl)-2H-1-benzopyran-3-carboxylic acid], the melting point lay within 220 to 223 °C.
For the molecule `O=C(O)C1=Cc2ccc(Cl)c(Cl)c2OC1C(F)(F)F` (centres unmarked) [Example 19, 7,8-Dichloro-2-trifluoromethyl-2H-1-benzopyran-3-carboxylic acid], the melting point is 219.5 to 220.9 °C.
As for `O=C(O)C1=Cc2cc(S(=O)(=O)NCc3ccco3)ccc2OC1C(F)(F)F` (centres unmarked) [Example 69, 6-[[(2-Furanylmethyl)amino]sulfonyl]-2-(trifluoromethyl)-2H-1-benzopyran-3-carboxylic acid], the melting point lay within 170 to 173 °C.
`Cc1ccc2c(c1)OC(C(F)(F)F)C(C(=O)O)=C2` (centres unmarked) [Example 3, 7-Methyl-2-trifluoromethyl-2H-1-benzopyran-3-carboxylic acid] showed a melting point of 202.1 to 203.1 °C.
In the case of `CC(C)(C)CC(=O)c1ccc2c(c1)C=C(C(=O)O)C(C(F)(F)F)O2` (centres unmarked) [Example 60, 6-(2,2-Dimethylpropylcarbonyl)-2-trifluoromethyl-2H-1-benzopyran-3-carboxylic acid], the melting point lay within 198 to 200 °C.
For `COc1cccc(-c2cc(Cl)cc3c2OC(C(F)(F)F)C(C(=O)O)=C3)c1` (centres unmarked) [Example 126, 6-Chloro-8-(3-methoxyphenyl)-2-(trifluoromethyl)-2H-1-benzopyran-3-carboxylic acid], the melting point is 173.1 to 177.4 °C.
With `CCc1cccc2c1OC(C(F)(F)F)C(C(=O)O)=C2` (centres unmarked) [Example 28, 8-Ethyl-2-trifluoromethyl-2H-1-benzopyran-3-carboxylic acid], the melting point is 185.4 to 186.8 °C.
Regarding `O=C(O)C1=Cc2ccc3ccccc3c2OC1C(F)(F)F` (centres unmarked) [Example 62, 2-Trifluoromethyl-2H-naphtho[1,2-b]pyran-3-carboxylic acid], the melting point is 245.9 to 248.6 °C.
`CCC1=C(C(=O)O)C(C(F)(F)F)Oc2ccc(Cl)cc21` (centres unmarked) [Example 212, 6-Chloro-4-ethyl-2-trifluoromethyl-2H-1-benzopyran-3-carboxylic acid]: the melting point lay within 170.9 to 172.1 °C.
For `O=C(O)C1=Cc2cc(-c3ccc(Cl)s3)ccc2OC1C(F)(F)F` (centres unmarked) [Example 135, 6-(5-Chloro-2-thienyl)-2-(trifluoramethyl)-2H-1-benzopyran-3-carboxylic acid], the melting point lay in the range of 205 to 206 °C.
With `COc1ccc(C#Cc2cc(Cl)cc3c2OC(C(F)(F)F)C(C(=O)O)=C3)cc1` (centres unmarked) [Example 123, 6-Chloro-8-[(4-methoxyphenyl)ethynyl]-2-(trifluoromethyl)-2H-1-benzopyran-3-carboxylic acid], the melting point is 217.7 to 218.7 °C.
On to `O=C(O)C1=Cc2cc(Cl)c(Oc3ccc(C(=O)O)cc3)cc2OC1C(F)(F)F` (centres unmarked) (as salt: potassium) [Example 206, 7-(4-Carboxyphenoxy)-6-chloro-2-(trifluoromethyl)-2H-1-benzopyran-3-carboxylic acid], for which the melting point is more than 300 °C.
Consider `Nc1ccc2c(c1)C=C(C(=O)O)C(C(F)(F)F)O2` (centres unmarked) [Example 36, 6-Amino-2-trifluoromethyl-2H-1-benzopyran-3-carboxylic acid], for which the melting point was 126 to 133 °C.
Molecule `CC(C)(C)c1cc2c(cc1Br)C=C(C(=O)O)C(C(F)(F)F)O2` (centres unmarked) [Example 77, 6-Bromo-7-(1,1-dimethylethyl)-2-(trifluoromethyl)-2H-1-benzopyran-3-carboxylic acid] returned a melting point of 198.6 to 199.9 °C.
With `O=C(O)C1=Cc2cc(Cl)c(S(=O)(=O)c3ccc(Cl)cc3)cc2OC1C(F)(F)F` (centres unmarked) [Example 194, 6-Chloro-7-[(4-chlorophenyl)sulfonyl]-2-(trifluoromethyl)-2H-1-benzopyran-3-carboxylic acid], the melting point was 240.4 to 241.5 °C.
Turning to `O=C(O)C1=Cc2cc(Cl)cc(-c3nc4ccccc4[nH]3)c2OC1C(F)(F)F` (centres unmarked) [Example 110, 8-(1H-Benzimidazol-2-yl)-6-chloro-2-(trifluoromethyl)-2H-1-benzopyran-3-carboxylic acid], the melting point was more than 300 °C.
